Results on nine molecules are retold here after patent US8754118B2, “Atropisomer of pyrrole derivative” (Daiichi Sankyo Company, Limited, priority 2007, dated 2014).

Data set [1] addresses T1, human mineralocorticoid receptor (hMR) ligand-binding domain (GAL4-hMR receptor) (Homo sapiens, UniProt P08235).
T1 construct: expressed in transfected cells; host or cells: HEK293
T1 sequence (P08235 726-964 limits assumed): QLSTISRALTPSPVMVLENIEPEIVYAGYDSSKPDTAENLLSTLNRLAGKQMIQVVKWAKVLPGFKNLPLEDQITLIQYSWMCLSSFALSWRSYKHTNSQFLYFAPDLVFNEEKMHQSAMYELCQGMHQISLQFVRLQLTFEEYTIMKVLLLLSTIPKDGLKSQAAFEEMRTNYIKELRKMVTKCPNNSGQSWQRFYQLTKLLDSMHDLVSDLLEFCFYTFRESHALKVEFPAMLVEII
Put plainly: GAL4-hMR luciferase reporter assay in HEK293 cells in the presence of 1 nM aldosterone (mineralocorticoid receptor antagonistic activity). It is filed as cell-based. The following applies: for Imax: maximum value from the graph of relative luciferase activity, DMSO control = 0%, 1 nM aldosterone control = 100%; for IC50: concentration giving Imax/2, HEK293, 1 nM aldosterone present, overnight incubation, read-out: ICmax50. An excerpt:
A plasmid pM-hMR-LBD which is obtained by ligation of a ligand-binding domain (LBD, corresponding to a region of about 308 amino acids at the carboxy terminus) of human mineralocorticoid receptor (hMR, NM_000901) to a DNA-binding domain (corresponding to a region of 147 amino acids at the amino terminus) of a yeast transcription factor GAL4 and expresses GAL4-hMR receptor was constructed. Using a reporter plasmid which has a sequence binding to the DNA-binding domain of GAL4 (UAS sequence) and contains a luciferase gene (such as pFR-Luc, a plasmid available from Stratagene Cloning Systems), a reporter assay was performed.
The previously obtained plasmid pM-hMR-LBD and the reporter plasmid were transfected into a human fetus-derived renal cell line HEK293 by the lipofection method. On the following day, the cells were treated with trypsin and collected. A white 96-well plate (manufactured by Costar, Inc.) was prepared, and the cells were dispensed into each well in an amount of 95 μL using a DMEM medium containing 5% FBS (fetal bovine serum) which had been treated with activated charcoal.
As for each test compound, solutions obtained by dissolving the test compound in dimethyl sulfoxide at predetermined concentrations were used, and the solutions were appropriately diluted with medium and added to the cells in the white 96-well plate to give a final concentration of 0.1%. When the test compound was added, 1 nM aldosterone was allowed to be present. A well group to which dimethyl sulfoxide was added was assigned Control 1 group; and a well group to which 1 nM aldosterone was added was assigned Control 2 group. After the addition, the plate was incubated overnight.
On the following day, the medium was removed, and a luciferase substrate (Wako Pure Chemical Industries, Ltd.) was prepared according to the package insert and added to each well in an amount of 50 μL, and then, the plate was stirred for about 30 minutes. The luminescence intensity of each well was measured using Analyst (manufactured by Molecular Devices Corporation) and taken as the luciferase activity. The luciferase activity value of Control 1 group was taken as 0%, the luciferase activity value of Control 2 group was taken as 100%, and relative luciferase activity values for the respective doses of the test compound in the test compound addition group were plotted to create a graph. From the graph, the maximum value was calculated as Imax (%), and the concentration of the test compound showing the value of Imax/2 was calculated as ICmax50 (M). In Table 1, ICmax50 values are shown.
(A reporter such as luciferase makes a cellular process visible.)

The nature of data set [2]: Plasma pharmacokinetics after oral administration to cynomolgus monkeys (LC-MS/MS). It is filed as in vivo. The following applies: male cynomolgus monkey, 3 mg/kg to the stomach in 0.5% MC, fasted; for Cmax: po, read-out: Cmax: Maximum concentration. The protocol:
Cynomolgus monkeys (male) were used, and the monkeys were fasted from one day before the test compound was administered. The administration sample was prepared by adding a 0.5% MC (methyl cellulose) solution to the test compound such that the dose was 3 mg/2 mL/kg. Each administration sample was administered to the stomach of the cynomolgus monkey using a tube. After the sample was administered, about 5 mL of water was administered. Each administration sample was administered to three cynomolgus monkeys in one group.
As for blood collection, about 1 mL of blood was collected from the femoral vein before administration, and […] 1, 2, 4, 6, 8, 24 and 48 hours after administration using an injection syringe treated with heparin. The collected blood was centrifuged (15,000×g, […], 4° C.) to obtain plasma. The obtained plasma was stored in a freezer (−20° C.) until pretreatment.
Preparation of Standard Solution and Internal Standard (IS) Solution: Each test compound was dissolved in acetonitrile, whereby a 1 mg/mL solution of each test compound was prepared. A standard solution was prepared by diluting each compound solution with acetonitrile. Further, sodium warfarin (Wako Pure Chemical Industries, Ltd.) was dissolved in acetonitrile to prepare a 500 ng/mL IS solution. Pretreatment of Plasma Sample: 50 μL of the plasma sample was taken out and 50 μL of acetonitrile was added thereto. For a calibration curve, 50 μL of each standard solution (acetonitrile solution) was added to 50 μL of the blank plasma. To all the samples, 150 μL of the IS acetonitrile solution was added, and the mixture was stirred, and then centrifuged (about 1,800×g, 30 min, 4° C.). After filtration was performed with Sirocco Protein Precipitation Plate (Waters Corporation), the filtrate was appropriately diluted with a mobile phase to prepare an LC-MS/MS analysis sample. Determination of Test Compound: The plasma concentration of each test compound was analyzed by the LC-MS/MS method. [HPLC Analysis Conditions]
Analysis: A pharmacokinetics parameter was calculated from the plasma concentration of each agent using WinNonlin Professional (Ver. 4.0.1, Pharsight Corporation). Incidentally, Noncompartment model was used as a model for calculation of the parameter.

`Cc1c(C(=O)Nc2ccc(S(C)(=O)=O)cc2)cn(CCO)c1-c1ccccc1C(F)(F)F` (racemic) [Example 3, (+/−)-1-(2-hydroxyethyl)-4-methyl-N-[4-(methylsulfonyl)phenyl]-5-[2-(trifluoromethyl)phenyl]-1H-pyrrole-3-carboxamide]: the Imax in data set [1] is on record as 105%. For the same molecule, in data set [2], the “AUC: Area under the plasma concentration versus time curve (0-48 hr.)” value came to 7667 ng·h/mL and the Cmax came to 380 ng/mL.
For the molecule `COc1ccc(-c2c(C)c(C(=O)Nc3ccc(S(C)(=O)=O)cc3)cn2CCO)c(C(F)(F)F)c1` (single isomer, unassigned) [Isomer F, (+)-1-(2-hydroxyethyl)-5-[4-methoxy-2-(trifluoromethyl)phenyl]-4-methyl-N-[4-(methylsulfonyl)phenyl]-1H-pyrrole-3-carboxamide], the IC50 in data set [1] is > 1000 nM.
With `COc1ccc(-c2c(C)c(C(=O)Nc3ccc(S(C)(=O)=O)cc3)cn2CCO)c(C(F)(F)F)c1` (racemic) [Example 5, (+/−)-1-(2-hydroxyethyl)-5-[4-methoxy-2-(trifluoromethyl)phenyl]-4-methyl-N-[4-(methylsulfonyl)phenyl]-1H-pyrrole-3-carboxamide], in data set [1], the IC50 stood at 5.3 nM and the Imax is given as 97%. Further, in data set [2], the “AUC: Area under the plasma concentration versus time curve (0-48 hr.)” value worked out at 33 ng·h/mL and the Cmax worked out at 2 ng/mL.
With `COc1ccc(-c2c(C)c(C(=O)Nc3ccc(S(C)(=O)=O)cc3)cn2CCO)c(C(F)(F)F)c1` (single isomer, unassigned) [Isomer E, (−)-1-(2-hydroxyethyl)-5-[4-methoxy-2-(trifluoromethyl)phenyl]-4-methyl-N-[4-(methylsulfonyl)phenyl]-1H-pyrrole-3-carboxamide], in data set [1], the IC50 worked out at 1.8 nM and the Imax is recorded as 115%. In addition, in data set [2], the “AUC: Area under the plasma concentration versus time curve (0-48 hr.)” value is 7187 ng·h/mL and the Cmax was 681 ng/mL.
The corresponding values for `Cc1c(C(=O)Nc2ccc(S(C)(=O)=O)cc2)cn(CCO)c1-c1ccccc1C(F)(F)F` (single isomer, unassigned) [Isomer D, (−)-1-(2-hydroxyethyl)-4-methyl-N-[4-(methylsulfonyl)phenyl]-5-[2-(trifluoromethyl)phenyl]-1H-pyrrole-3-carboxamide] are 2.4 nM, 99%, 26390 ng·h/mL and 1330 ng/mL.
As for `Cc1c(C(=O)Nc2ccc(S(C)(=O)=O)cc2)cn(C)c1-c1ccccc1C(F)(F)F` (racemic) [Example 1, (+/−)-1,4-dimethyl-N-[4-(methylsulfonyl)phenyl]-5-[2-(trifluoromethyl)phenyl]-1H-pyrrole-3-carboxamide], in data set [1], the IC50 was found to be 13 nM and the Imax amounted to 95%. Also, in data set [2], the “AUC: Area under the plasma concentration versus time curve (0-48 hr.)” value was 860 ng·h/mL and the Cmax was 42 ng/mL.
On to `Cc1c(C(=O)Nc2ccc(S(C)(=O)=O)cc2)cn(C)c1-c1ccccc1C(F)(F)F` (single isomer, unassigned) [Isomer A, (−)-1,4-dimethyl-N-[4-(methylsulfonyl)phenyl]-5-[2-(trifluoromethyl)phenyl]-1H-pyrrole-3-carboxamide], for which, in data set [1], the IC50 was > 1000 nM.
Take `Cc1c(C(=O)Nc2ccc(S(C)(=O)=O)cc2)cn(CCO)c1-c1ccccc1C(F)(F)F` (single isomer, unassigned) [Isomer C, (+)-1-(2-hydroxyethyl)-4-methyl-N-[4-(methylsulfonyl)phenyl]-5-[2-(trifluoromethyl)phenyl]-1H-pyrrole-3-carboxamide]: the IC50 in data set [1] was > 1000 nM.
With `Cc1c(C(=O)Nc2ccc(S(C)(=O)=O)cc2)cn(C)c1-c1ccccc1C(F)(F)F` (single isomer, unassigned) [Isomer B, (+)-1,4-dimethyl-N-[4-(methylsulfonyl)phenyl]-5-[2-(trifluoromethyl)phenyl]-1H-pyrrole-3-carboxamide], in data set [1], the IC50 came out at 2.6 nM and the Imax is on record as 123%. Further, in data set [2], the “AUC: Area under the plasma concentration versus time curve (0-48 hr.)” value came out at 3446 ng·h/mL and the Cmax came to 184 ng/mL.
